Results on one compound are retold here after patent US4332891A, “Process for the production of antibiotic Cephamycin C” (Otsuka Pharmaceutical Co., Ltd., priority 1979, dated 1982).

As usually defined, the MIC is the smallest concentration in the dilution series that meets the test's criterion for growth inhibition. The low end stands for a more susceptible organism, the high end for a less susceptible organism.

Series [1] has as its system Bacillus subtilis PCI 219. Kind of series: Antimicrobial spectrum (MIC). Particulars: PCI219. In kind it is cell-based. The source says: (§1) The antimicrobial spectra to various microorganisms of the Cephamycin C produced by the process of this invention are shown as minimum inhibitory concentrations (MIC) in Table 4.
Another series deals with Esherichia coli NIHJ. Kind of series: Antimicrobial spectrum (MIC). The series is classed as cell-based.
Source text: as §1

The subject of the next series is Proteus mirabilis 1287. The series is described as follows: Antimicrobial spectrum (MIC). The series is classed as cell-based.
Source text: as §1

For series [2], the system named is Proteus vulgaris IID OX-19. The series is described as follows: Antimicrobial spectrum (MIC). In kind it is cell-based. Particulars: IIDOX19.
Source text: as §1

The subject of series [3] is Salmonella typhi 0-901 NCTC 8393. The series is described as follows: Antimicrobial spectrum (MIC). The series is classed as cell-based. Conditions: Salmonella enterica.
Source text: as §1

In another series the test system is Sarcina lutea PCI 1001. Kind of series: Antimicrobial spectrum (MIC). The series is classed as cell-based. Particulars: Micrococcus luteus, PCI1001.
Source text: as §1

For series [4], the system named is Staphylococcus aureus FDA 209P. The series is described as follows: Antimicrobial spectrum (MIC). In kind it is cell-based. Conditions: FDA209P.
Source text: as §1

Series [5] has as its system Staphylococcus aureus Newman. The series is described as follows: Antimicrobial spectrum (MIC). In kind it is cell-based.
Source text: as §1

Another series is described as follows: Solubility. The series is classed as physicochemical.

Each structure is given as a SMILES string. In brackets after ≈: the same amount, converted by molar mass.

With `COC1(NC(=O)CCCC(N)C(=O)O)C(=O)N2C(C(=O)O)=C(COC(N)=O)CS[C@@H]21` (some centres unmarked) [Cephamycin C, 7-(5-amino-5-carboxyvalerylamino)-3-carbamoyloxymethyl-7-methoxy-3-cephem-4-carboxylic acid], the minimal inhibitory concentration (MIC) is 15.6 µg/mL (≈ 34.9 µM) in series [1]; 15.6 µg/mL (≈ 34.9 µM) in the series on Esherichia coli NIHJ; 7.8 µg/mL (≈ 17.5 µM) in the series with Proteus mirabilis 1287; 7.8 µg/mL (≈ 17.5 µM) in [2]; 3.9 µg/mL (≈ 8.74 µM) in series [3]; 15.6 µg/mL (≈ 34.9 µM) in the series on Sarcina lutea PCI 1001. In addition, the MIC in series [4] and in series [5] was 250 µg/mL (≈ 560 µM) throughout. Further, the Solubility entry in “Solubility” (in dimethylsulfoxide) is given as “slightly soluble in dimethylsulfoxide”; in “Solubility” (in ethanol), “sparingly soluble in ethanol”; in the series “Solubility” (in water), “well soluble in water”.
